According to PMC4226669, “Anti-cancer potency of tasquinimod is enhanced via albumin-binding facilitating increased uptake in the tumor microenvironment” (Oncotarget, 2014):
Read-outs that look alike come from different tables or passages of the source.

Tests used:
[1] = set-up: method as in PMID 16955399; conditions: adult male mice, 0.1-30 mg/kg via gavage or drinking water; cited from earlier work
[2] = Protein binding fraction (PBF) in nude mouse plasma; type: in vitro ADME
Description: Mice were orally gavaged with ^14C-labeled tasquinimod at a dose of 5mg/kg and 1 hour later blood collected and plasma isolated and the PBF determined as described previously using Centrifree® YM-30 centrifuge filter unit with a molecular weight cutoff of 30K (i.e., Millipore, Billerica,MO).

[3] = Drug binding in 10% FBS supplemented media; type: in vitro ADME, bovine; conditions: 1 μM in 10% FBS supplemented media
Excerpt: Since tasquinimod binds to both S100A9 and HDAC4 proteins with high affinities and since S100A9 has both an extracellular and intracellular location while HDAC4 in prostate cancer cells is in the cell nucleus, it is important to evaluate whether tasquinimod is capable of entering cells or whether it only associates with extracellular plasma membrane components. To resolve this question, an in vitro approach was taken using three human prostate cancer cells (i.e., CWR-22Rv1, LAPC-4, and LNCaP) and human umbilical vein endothelial (HUVEC) cells. When 1 μM tasquinimod is added to 10% fetal bovine serum (FBS) supplemented media, there is sufficient albumin to bind 80% of the drug so that the protein-free concentration of tasquinimod in such media is only 0.2 μM. Preliminary studies documented that even after 48 hours of exposure of HUVEC and each of the 3 prostate cancer cell lines to 1 μM at confluent cell density, there was < 15% metabolism of the parental tasquinimod drug with the major metabolite being the O-demethylated quinoline compound.

[4] = tested on: TRAMP-C2 mouse prostate cancer; test: TRAMP-C2 cancer growth and blood vessel density in syngeneic mice; type: in vivo; conditions: 5 mg/kg/day via the drinking water
Excerpt: Tasquinimod's oral potency is not restricted to human prostate cancer xenografts growing in immune-suppressed mice.
The source, history, and characteristics of the human prostate cancer cell lines (i.e., LNCaP, LAPC4, and CWR-22Rv1 and the human umbilical vascular endothelial cells (HUVEC) used, as well as cell culture conditions for their in vitro maintenance and the in vivo protocol for their xenografting into immune-deficient nude male mice are as described previously. The source, history, and characteristics of the TRAMP-C2 mouse prostate cancer line, as well as cell culture conditions for their in vitro maintenance and the in vivo protocol for their growth in intact adult male syngeneic C57Bl/6J are as described previously. All lines were mycoplasma negative using the MycoSensor PCR Assay kit (Agilent Technologies) and genetically authenticated within the last 6 months using short tandem repeat profiling conducted by the Johns Hopkins Genetic Resource Core Facility. The source, history, and characteristics of the CWR-RH human prostate cancer xenograft are as described previously. In vitro growth curves were determined as described. Animal studies were conducted according to animal protocol MO09M434 approved by Johns Hopkins Animal Care and Use Committee. […]

[5] = Tissue distribution and metabolites in nude mice bearing CWR-22Rv1 cancers; type: in vivo, mouse; conditions: for concentration at 4 h: male, nude, mouse
Description: To determine the concentration of metabolites, nude mice bearing CWR-22Rv1 prostate cancers were orally administered with 5 mg/kg of ^14C- radiolabeled tasquinimod and 4 and 24 hours later, blood plasma and liver, kidney, and cancer tissue harvested and analyzed for determination of metabolites. […] The predominant metabolite is the O-demethylated quinoline compound, Figure 2A&B, but the concentration of the hydroxylated aromatic quinoline and the N-demethylated quinoline compounds, along with the O-demethylated quinoline compound are also higher in the liver than the blood at the time point studied, Figure 2B. Also in the kidney 40% of the drug is present as metabolites, with the concentration of the hydroxylated aromatic quinoline and the O-demethylated quinoline compounds being higher than in the blood, Figure 2B. In contrast, within the cancer > 80% of the total concentration of drug is present as parent tasquinimod, Figure 2B. Only the O-demethylated quinoline compound is present at a higher concentration in the cancer than blood, Figure 2B. The plasma concentration of total metabolites is < 10% at 4 hours, Figure 2B, and 24 hours post oral dosing with 5 mg/kg, Figure 2A.
Male nude mice bearing 200-300mm^3 CWR-22Rv1 cancers were given ^14C-labeled tasquinimod at a dose of 5 mg/kg via oral gavage. At times ranging from 30 min to 24 hour, groups of 4-6 mice were anaesthetized with ketamine and 1 ml of heparinized blood collected by cardiac puncture, followed by subsequent cardiac perfusion of saline to remove blood associated drug. An aliquot of liver, kidney, and cancer was removed, weighed and then homogenized. The radioactivity in 10 μL aliquots of tissue homogenates and blood plasma was determined using a liquid scintillation counter and used to calculate the total amount of tasquinimod plus its metabolites per gram of tissue or per ml of blood. The remaining sample volume was deproteinated with acetonitrile and the radioactivity of an aliquot of the supernatant determined and the remaining supernatant lyophilized, resuspended initially with 0.1mL dimethyl sulfoxide and diluted by the addition of 0.9mL deionized water prior to injection into the HPLC. The HPLC system consisted of Waters pumps using a Waters gradient controller to deliver mobile phase at a flow rate of 1mL per minute using a Supelcosil ABZ+ C18 column that is 150mm long by 4.6mm diameter and has 5μm particle size. The metabolites were separated using a linear gradient in which the starting mobile phase was 35% acetonitrile: 65% water: 0.1% Trifluoroacetic acid (TFA) increasing to 50% acetonitrile: 50% water: 0.1%TFA over 25 minutes, and then increased rapidly to 98% acetonitrile: 2% water: 0.1%TFA and held until 33 minutes before it is returned to the initial conditions for the next run. Fractions were collected and the radioactivity determined by scintillation counting. As controls, the individual elution time of non-radiolabeled standard solutions of the various tasquinimod metabolites was determined using UV absorption at 215nm. The results were expressed as concentration based upon tissue volume, assuming 1gram wet weight equals 1ml, or normalized to tissue vascular volume.

[6] = cited from earlier work

COc1cccc2c1c(O)c(C(=O)N(C)c1ccc(C(F)(F)F)cc1)c(=O)n2C [Tasquinimod]
bioavailability and oral absorption [1]: excellent | plasma tasquinimod that is albumin bound [2]: 98% | total plasma tasquinimod that is non-protein bound ([2]; following oral dosing): ~ 2% | fraction unbound at 1 h ([2]; oral, 5 mg/kg, nude mouse plasma): 0.02 | drug bound by albumin in media [3]: 80% | protein-free concentration in media [3]: 0.2 µM | inhibition of TRAMP-C2 mouse prostate cancer growth ([4]; immune-competent syngeneic mice): > 80% | inhibition of blood vessel density within the TRAMP-C2 cancers ([4]; treated vs. control): 75 ± 9% | prostate cancer tissue concentration relative to liver or kidney, normalized to percent vascular volume ([5]; 5 mg/kg oral): 3-5 fold | time to maximum total drug concentration in liver, kidney and cancer ([5]; 5 mg/kg oral, CWR-22Rv1 tumor bearing mice): ≤ 5 h | total drug within the cancer present as parent tasquinimod ([5]; CWR-22Rv1 cancer, 4 hours post 5 mg/kg oral): > 80% | percentage of total drug in CWR-22Rv1 cancer ([5]; CWR-22Rv1 cancer, 4 hours post oral 5mg/kg tasquinimod): 83+/-6% | percentage of total drug in kidney ([5]; kidney, 4 hours post oral 5mg/kg tasquinimod): 60+/-7% | percentage of total drug in liver ([5]; liver, 4 hours post oral 5mg/kg tasquinimod): 29+/-5% | concentration at 4 h ([5]; CWR-22Rv1 cancer tissue, CWR-22Rv1 cancer, 4 hours post oral 5mg/kg tasquinimod, 1gm tissue = 1ml, read-out: concentration in CWR-22Rv1 cancer): 2.24 µM | concentration at 4 h ([5]; kidney, 4 hours post oral 5mg/kg tasquinimod, 1gm tissue = 1ml, read-out: concentration in kidney): 2.3 µM | concentration at 4 h ([5]; liver, 4 hours post oral 5mg/kg tasquinimod, 1gm tissue = 1ml, read-out: concentration in liver): 3.77 µM | concentration at 4 h ([5]; plasma, 4 hours post oral 5mg/kg tasquinimod, read-out: concentration in plasma): 5.58 µM | percentage of total drug in plasma ([5]; plasma, 4 hours post oral 5mg/kg tasquinimod): 93+/-6% | blood (plasma) level maintained ([6]; chronic daily oral dosing, 1 mg (0.5-1 mg/day), clinical trials): ~ 0.5 μM | plasma half-life ([6]; clinical trials): 40 ± 16 h | plasma levels at which systemic anti-cancer potency occurs ([6]; clinical trials): 500 to 1000 nM | bioavailability and oral absorption ([6]; daily dose as liquid or gelatin capsule): excellent
